Test results as given in patent US11505548B2, “Heterocyclic compounds and their use for treatment of helminthic infections and diseases” (Celgene Corporation, priority 2019, dated 2022).
Where two headings read alike, the source gives them in different places.

Tested on: Onchocerca gutturosa Adult Male Worms
Assay: Onchocerciasis in vitro screening model, worm motility score
Type: cell-based
Conditions: read-out: O. gutturosa activity level (IC50 or MED)
[1] = Onchocerca gutturosa, Table 1 O. gutturosa, levels A/B/C, motility or MTT readout not specified
[2] = in vitro, Onchocerca gutturosa adult male worms, class A/B/C

| SMILES | IC50 [2] [nM] | IC50 [1] [nM] |
| --- | --- | --- |
| Cc1cccnc1Nc1nc(-c2ncc(OC3CC3)cc2C(F)(F)F)ns1 [Compound 93, 3-(5-cyclo-propoxy-3-(trifluoromethyl)pyridin-2-yl)-N-(3-methyl-pyridin-2-yl)-1,2,4-thiadiazol-5-amine] | – | 500 to 5000 |
| FC(F)(F)c1cccnc1Nc1nc(-c2cc(C3CC3)ccn2)ns1 [Compound 84, 3-(4-cyclopropyl-pyridin-2-yl)-N-(3-(trifluoromethyl)pyridin-2-yl)-1,2,4-thiadiazol-5-amine] | – | < 200 |
| FC(F)(F)c1ccnc(Nc2nc(-c3ccccn3)no2)c1 [Compound 28, 3-(pyridin-2-yl)-N-(4-(trifluoro-methyl)pyridin-2-yl)-1,2,4-o xadiazol-5-amine] | – | < 200 |
| FC(F)(F)c1ccc(Nc2nc(-c3ccccn3)ns2)nc1 [Cmpd 1] | – | < 200 |
| Cc1cccnc1Nc1nnc(-c2cc(OC(C)C)ccn2)o1 [Compound 211, 5-(4-isopropoxy-pyridin-2-yl)-N-(3-methyl-pyridin-2-yl)-1,3,4-oxadiazol-2-amine] | 500 to 5000 | – |
| CCOc1ccc(Nc2nc(-c3ncccc3F)no2)nc1 [Compound 25, N-(5-ethoxy-pyridin-2-yl)-3-(3-fluoropyridin-2-yl)-1,2,4-oxadiazol-5-amine] | – | < 200 |
| CC(C)Oc1ccc(-c2nsc(Nc3ncc(C(F)(F)F)cc3N(C)C(=O)C3CC3)n2)nc1 [Compound 248, N-(2-(3-(5-isopropoxy-pyridin-2-yl)-1,2,4-thiadiazol-5-ylamino)-5-(trifluoro-methyl)pyridin-3-yl)-N-methylcyclo-propanecarbox-amide] | 500 to 5000 | – |
| Cc1cccnc1Nc1nc(-c2cc(C3CCN(C)CC3)ccn2)ns1 [Compound 44, 3-(4-(1-methyl-piperidin-4-yl)pyridin-2-yl)-N-(3-methylpyridin-2-yl)-1,2,4-thiadiazol-5-amine] | – | < 200 |
| COc1cccnc1Nc1nc(-c2ccc(OC3CCN(C4CC4)CC3(F)F)cn2)ns1 (stereo not shown) [Compound 129, 3-(5-(1-cyclopropyl-3,3-difluoro-piperidin-4-yloxy)pyridin-2-yl)-N-(3-methoxypyridin-2-yl)-1,2,4-thiadiazol-5-amine] | – | 500 to 5000 |
| CNc1cccnc1Nc1nc(-c2ccc(OC(C)C)cn2)ns1 [Compound 108, N2-(3-(5-isopropoxypyridin-2-yl)-1,2,4-thiadiazol-5-yl)-N3-methyl-pyridine-2,3-diamine] | – | 200 to 500 |
| CN1CC(S(=O)(=O)c2ccc(-c3nsc(Nc4ncccc4N(C)C)n3)nc2)C1 [Compound 141, N3,N3-dimethyl-N2-(3-(5-(1-methylazetidin-3-ylsulfonyl)pyridin-2-yl)-1,2,4-thiadiazol-5-yl)pyridine-2,3-diamine] | – | 500 to 5000 |
| CC(C)Oc1cccnc1-c1nc(Nc2cc(C(F)(F)F)c(C(C)C)cn2)nn1C [Compound 148, N-(5-(3-isoprop-oxypyridin-2-yl)-1-methyl-1H-1,2,4-triazol-3-yl)-5-isopropyl-4-(trifluoromethyl) pyridin-2-amine] | – | 500 to 5000 |
| CN1CCC(Oc2ccc(-c3nsc(Nc4cc(C(F)(F)F)ccn4)n3)nc2)CC1 [Compound 34, 3-(5-(1-methyl-piperidin-4-yloxy)pyridin-2-yl)-N-(4-(trifluoro-methyl)pyridin-2-yl)-1,2,4-thiadiazol-5-amine] | – | 500 to 5000 |
| c1ccc(-c2ccnc(Nc3nc(-c4ccccn4)no3)c2)cc1 [Compound 246, N-(4-phenyl-pyridin-2-yl)-3-(pyridin-2-yl)-1,2,4-oxadiazol-5-amine] | 500 to 5000 | – |
| Cc1cccnc1Nc1nc(-c2ccc(C(=O)N(C)C)cn2)ns1 [Compound 17, N,N-dimethyl-6-(5-(3-methylpyridin-2-ylamino)-1,2,4-thiadiazol-3-yl)nicotinamide] | – | < 200 |
| COc1ccnc(-c2nsc(Nc3ccc(OC(C)C)cn3)n2)c1 [Compound 184, N-(5-isoprop-oxypyridin-2-yl)-3-(4-methoxy-pyridin-2-yl)-1,2,4-thiadiazol-5-amine] | – | < 200 |
| Cc1cccnc1Nc1nc(-c2cc(C(F)(F)F)c(OCC3CC3)cn2)ns1 [Compound 110, 3-(5-(cyclo-propylmethoxy)-4-(trifluoromethyl)pyridin-2-yl)-N-(3-methyl-pyridin-2-yl)-1,2,4-thiadiazol-5-amine] | – | < 200 |
| CC(C)Oc1cnc(-c2nsc(Nc3ncccc3C(F)(F)F)n2)cc1C(=O)N(C)C [Compound 218, 5-isopropoxy-N,N-dimethyl-2-(5-(3-(trifluoromethyl)pyridin-2-ylamino)-1,2,4-thiadiazol-3-yl)isonico-tinamide] | 500 to 5000 | – |
| Cc1cccnc1Nc1nc(-c2ccc(OC3CCN(C4CC4)CC3(F)F)cn2)ns1 (stereo not shown) [Compound 83, 3-(5-(1-cyclo-propyl-3,3-difluoro-piperidin-4-yloxy)pyridin-2-yl)-N-(3-methylpyridin-2-yl)-1,2,4-thiadiazol-5-amine] | – | 200 to 500 |
| CC(C)Oc1ccc(-c2n[nH]c(Nc3ncccc3C(F)(F)F)n2)nc1 [Compound 70, N-(3-(5-isopropoxy-pyridin-2-yl)-1H-1,2,4-triazol-5-yl)-3-(trifluoromethyl) pyridin-2-amine] | – | 500 to 5000 |
| CC(C)Oc1ccc(-c2nsc(Nc3ncc(C(=O)NC4CC(F)(F)C4)cc3C(C)C)n2)nc1 [Compound 195, N-(3,3-difluoro-cyclobutyl)-6-(3-(5-isoprop-oxypyridin-2-yl)-1,2,4-thiadiazol-5-ylamino)-5-isopropyl-nicotinamide] | – | < 200 |
| FC(F)(F)c1ccnc(Nc2nc(-c3cc(C4CC4)ccn3)ns2)c1 [Compound 85, 3-(4-cyclopropyl-pyridin-2-yl)-N-(4-(trifluoromethyl)pyridin-2-yl)-1,2,4-thiadiazol-5-amine] | – | < 200 |

The next lines start with results.

| IC50 [2] [nM] | SMILES | IC50 [1] [nM] |
| --- | --- | --- |
| 500 to 5000 | CC(C)Oc1ccnc(-c2nnc(Nc3ccc(C(C)C)cn3)s2)c1 [Compound 232, 5-(4-isopropoxy-pyridin-2-yl)-N-(5-isopropyl-pyridin-2-yl)-1,3,4-thiadiazol-2-amine] | – |
| 500 to 5000 | CN1CCc2cc(-c3nsc(Nc4ncccc4S(=O)(=O)N(C)C)n3)ncc21 [Compound 307, N,N-dimethyl-2-(3-(1-methyl-2,3-dihydro-1H-pyrrolo[2,3-c]pyridin-5-yl)-1,2,4-thiadiazol-5-ylamino) pyridine-3-sulfonamide] | – |
| 500 to 5000 | CC(=O)N(C)c1cnc(Nc2nc(-c3ncccc3OC(C)C)ns2)c(C(F)(F)F)c1 [Compound 279, N-(6-(3-(3-isopropoxy-pyridin-2-yl)-1,2,4-thiadiazol-5-ylamino)-5-(trifluoro-methyl)pyridin-3-yl)-N-methylacetamide] | – |
| 500 to 5000 | CC(=O)N(C)c1cccnc1Nc1nc(-c2ccc(OC3COC3)cn2)ns1 [Compound 326, N-methyl-N-(2-(3-(5-(oxetan-3-yloxy)pyridin-2-yl)-1,2,4-thiadiazol-5-ylamino)pyridin-3-yl)acetamide] | – |
| < 200 | CN(C)C(=O)c1cc(C(F)(F)F)cnc1Nc1nc(-c2cc3c(cn2)N(C)C(C)(C)C3)ns1 [Compound 293, N,N-dimethyl-5-(trifluoromethyl)-2-(3-(1,2,2-trimethyl-2,3-dihydro-1H-pyrrolo[2,3-c]pyridin-5-yl)-1,2,4-thiadiazol-5-ylamino) nicotinamide] | – |
| < 200 | Cc1ccnc(Nc2nsc(-c3ncccc3C)n2)c1 [Compound 305, 5-(3-methyl-pyridin-2-yl)-N-(4-methylpyridin-2-yl)-1,2,4-thiadiazol-3-amine] | – |
